Data published in patent US20230212549A1, “COMPOUNDS COMPRISING A […] LIGAND AND USE THEREOF” (priority 2021, published 2023).
Each block holds one molecule with its values, some of them ahead of it. Numbered stars: 1 amine (or outer) side, 2 acyl side, 3 side chain; on linkers, the order of the positions; unused ones are H or OH. Bridge positions count the residues as written; N and C are the ends. Peptide text beside a SMILES is read from it. * marks the point of attachment. X13 = O=C(O)CN1CCN(CC(=O)O)CCN(CC(=O)N2CCN(Cc3cc(C[*:1])cc(C[*:2])c3)CC2)CCN(CC(=O)O)CC1; Hexanoyl = CCCCCC(=O)*

Experiments:
[1] = target: alpha 1A (h) (Homo sapiens, UniProt P35348); conditions: read-out: Ki Ref; reference compound (positive control)
[2] = target: KV channel; conditions: read-out: Ki Ref; reference compound (positive control)
[3] = target: T1, FAP-expressing human WI-38 fibroblasts (Homo sapiens, UniProt Q12884); test: Competitive FACS binding assay
T1 construct: FAP-expressing human WI-38 fibroblasts (ECACC) were cultured in EMEM; host or cells: WI-38 human fibroblasts
Procedure: Cells were analyzed in an Attune NxT flow cytometer. […] […].
Cells were analyzed in an Attune NxT flow cytometer. […]

[4] = target: T2, Human recombinant FAP (Homo sapiens, UniProt Q12884); test: Surface plasmon resonance (Biacore) assay; format: binding
[5] = target: T2, Human recombinant FAP; test: FRET-based FAP protease activity assay; format: biochemical; set-up: purchased R&D systems 3715-SE; conditions: pIC50 Category (Activity), FRET-peptide substrate, 37° C.
[6] = tested on: HEK-FAP tumor; test: SPECT imaging and biodistribution of ^111In-labelled compounds in mice with HEK-FAP tumors; format: in vivo; conditions: FIG. 21
[7] = target: T3, proteases (Homo sapiens, UniProt Q9UBX1); format: biochemical; conditions: Cathepsin F; Reference at 1 μM
T3 construct: BPS Biosciences (ran the screen)

[8] = target: proteases (Homo sapiens, UniProt Q9UHL4); format: biochemical; conditions: DPP7; Reference at 200 μM
[9] = target: T4, proteases (Homo sapiens, UniProt Q6V1X1); format: biochemical; conditions: DPP8; Reference at 200 μM
T4 construct: BPS Biosciences (ran the screen)

[10] = In vivo SPECT/CT imaging of ^111In-3BP-4560 in mice; conditions: ^111In-labelled, FIG. 28
[11] = target: Ca2+ channel (L, dihydropyridine site) (Rattus norvegicus, UniProt P22002); test: biochemical; conditions: read-out: % Inhibition of Specific Binding
[12] = 24 h incubation, 37° C.
[13] = 24 h incubation, 37° C.; remark: listed apart in the source
[14] = target: T5, proteases (Homo sapiens, UniProt P03956); format: biochemical; conditions: Matrix metalloproteasel; Reference at 1 μM
T5 construct: BPS Biosciences (ran the screen)

[15] = target: T6, proteases (Homo sapiens, UniProt P08253); format: biochemical; conditions: Matrix metalloprotease 2; Reference at 100 nM
T6 construct: BPS Biosciences (ran the screen)

[16] = target: T7, proteases (Homo sapiens, UniProt P14780, Q279R); format: biochemical; conditions: 0.1 µM
T7 construct: BPS Biosciences (ran the screen)

[17] = target: T8, proteases (Homo sapiens, UniProt P09936); format: biochemical; conditions: Ubiquitin carboxy-terminal hydrolase L1; Reference at 100 nM
T8 construct: BPS Biosciences (ran the screen)

[18] = target: T9, proteases (Homo sapiens, UniProt P40818); format: biochemical; conditions: Ubiquitin carboxyl-terminal hydrolase 8; Reference at 1 μM
T9 construct: BPS Biosciences (ran the screen)

[19] = target: T10, proteases (Homo sapiens, UniProt Q93009); format: biochemical; conditions: Ubiquitin carboxyl-terminal hydrolase 7; Reference at 1 μM
T10 construct: BPS Biosciences (ran the screen)

[20] = target: T11, proteases (Homo sapiens, UniProt P54578); format: biochemical; conditions: Ubiquitin carboxyl-terminal hydrolase 14; Reference at 100 nM
T11 construct: BPS Biosciences (ran the screen)

[21] = target: T12, proteases (Homo sapiens, UniProt Q8N6M0); format: biochemical; conditions: Deubiquitinase OTUD6B; Reference at 1 μM
T12 construct: BPS Biosciences (ran the screen)

[22] = target: T13, proteases (Homo sapiens, UniProt Q14694); format: biochemical; conditions: Ubiquitin carboxyl-terminal hydrolase 10; Reference at 1 μM
T13 construct: BPS Biosciences (ran the screen)

[23] = target: T14, proteases (Homo sapiens, UniProt P21580); format: biochemical; conditions: A20; Reference at 1 μM
T14 construct: BPS Biosciences (ran the screen)

[24] = target: T15, proteases (Homo sapiens, UniProt P54252); format: biochemical; conditions: Ataxin3; Reference at 10 μM
T15 construct: BPS Biosciences (ran the screen)

[25] = target: T16, proteases (Homo sapiens, UniProt P45974); format: biochemical; conditions: Ubiquitin carboxyl-terminal hydrolase 5; Reference at 1 μM
T16 construct: BPS Biosciences (ran the screen)

[26] = target: T17, proteases (Homo sapiens, UniProt O75604); format: biochemical; conditions: Ubiquitin carboxyl-terminal hydrolase 2; Reference at 1 μM
T17 construct: BPS Biosciences (ran the screen)

[27] = target: T18, proteases (Homo sapiens, UniProt P15374); format: biochemical; conditions: Ubiquitin carboxy-terminal hydrolase L3; Reference at 10 nM
T18 construct: BPS Biosciences (ran the screen)

[28] = target: T19, proteases (Homo sapiens, UniProt Q12884); format: biochemical; conditions: FAP; Reference at 100 nM
T19 construct: BPS Biosciences (ran the screen)

[29] = target: 5-HT2B (h) (Homo sapiens, UniProt P41595); conditions: read-out: Ki Ref; reference compound (positive control)
[30] = target: T20, proteases (Homo sapiens, UniProt P42574); format: biochemical; conditions: Caspase-3; Reference at 100 nM
T20 construct: BPS Biosciences (ran the screen)

[31] = target: T21, proteases (Homo sapiens, UniProt P55210); format: biochemical; conditions: Caspase-7; Reference at 1 μM
T21 construct: BPS Biosciences (ran the screen)

[32] = target: NMDA; conditions: read-out: Ki Ref; reference compound (positive control)
[33] = target: T22, proteases (Hepatitis C virus genotype 2a, UniProt Q99IB8); format: biochemical; conditions: serine protease NS3 (a.a. 3-181) from Hepatitis C virus genotype 2a; Reference at 100 nM
T22 construct: BPS Biosciences (ran the screen)

[34] = target: T23, proteases (Hepatitis C virus genotype 1b, UniProt P26663, R1181Q); format: biochemical; conditions: serine protease NS3 (a.a. 3-181) from Hepatitis C virus genotype 1b (mutant R155Q); Reference at 1 μM
T23 construct: BPS Biosciences (ran the screen)

[35] = target: T24, proteases (Hepatitis C virus genotype 1a, UniProt P27958, D1194V); format: biochemical; conditions: serine protease NS3 (a.a. 3-181) from Hepatitis C virus genotype 1a (mutant D168V); Reference at 100 nM
T24 construct: BPS Biosciences (ran the screen)

[36] = target: T25, proteases (Hepatitis C virus genotype 1b, UniProt P26663); format: biochemical; conditions: serine protease NS3 (a.a. 3-181) from Hepatitis C virus genotype 1b; Reference at 100 nM
T25 construct: BPS Biosciences (ran the screen)

[37] = target: T26, proteases (Hepatitis C virus genotype 1b, UniProt P26663, D1194V); format: biochemical; conditions: serine protease NS3 (a.a. 3-181) from Hepatitis C virus genotype 1b (mutant D168V); Reference at 100 nM
T26 construct: BPS Biosciences (ran the screen)

[38] = tested on: HEK-FAP tumors; test: Efficacy study, HEK-FAP tumor model; conditions: throughout the study, 30 or 60 MBq
[39] = tested on: Sarc4809 PDX tumors; test: Efficacy study, sarcoma Sarc4809 PDX model; conditions: throughout the study, 30 or 60 MBq
[40] = tested on: metastatic colorectal cancer; conditions: patients with metastatic colorectal cancer, Phase I and II clinical trials; cited from earlier work

T2 sequence (Q12884 whole entry): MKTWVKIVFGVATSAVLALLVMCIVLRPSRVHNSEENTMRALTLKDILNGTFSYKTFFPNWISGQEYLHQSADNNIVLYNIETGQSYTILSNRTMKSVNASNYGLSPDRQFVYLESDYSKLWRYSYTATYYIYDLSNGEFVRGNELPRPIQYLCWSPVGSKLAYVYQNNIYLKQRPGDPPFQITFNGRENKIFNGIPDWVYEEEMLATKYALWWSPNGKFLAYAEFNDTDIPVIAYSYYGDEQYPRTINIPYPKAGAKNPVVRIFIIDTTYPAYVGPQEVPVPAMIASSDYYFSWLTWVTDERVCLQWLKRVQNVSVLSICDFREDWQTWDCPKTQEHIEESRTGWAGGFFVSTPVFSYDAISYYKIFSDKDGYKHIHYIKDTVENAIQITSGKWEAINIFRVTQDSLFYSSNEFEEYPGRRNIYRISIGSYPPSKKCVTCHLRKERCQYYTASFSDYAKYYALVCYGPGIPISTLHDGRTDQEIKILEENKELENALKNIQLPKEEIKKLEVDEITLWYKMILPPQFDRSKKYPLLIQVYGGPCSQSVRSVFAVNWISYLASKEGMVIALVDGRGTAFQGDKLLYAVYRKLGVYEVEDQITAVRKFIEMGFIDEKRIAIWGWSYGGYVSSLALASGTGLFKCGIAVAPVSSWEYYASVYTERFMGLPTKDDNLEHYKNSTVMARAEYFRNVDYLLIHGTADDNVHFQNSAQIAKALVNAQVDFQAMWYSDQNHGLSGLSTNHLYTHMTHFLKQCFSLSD
T1 sequence (Q12884 whole entry): as above
Ca2+ channel (L, dihydropyridine site), sequence (P22002 whole entry): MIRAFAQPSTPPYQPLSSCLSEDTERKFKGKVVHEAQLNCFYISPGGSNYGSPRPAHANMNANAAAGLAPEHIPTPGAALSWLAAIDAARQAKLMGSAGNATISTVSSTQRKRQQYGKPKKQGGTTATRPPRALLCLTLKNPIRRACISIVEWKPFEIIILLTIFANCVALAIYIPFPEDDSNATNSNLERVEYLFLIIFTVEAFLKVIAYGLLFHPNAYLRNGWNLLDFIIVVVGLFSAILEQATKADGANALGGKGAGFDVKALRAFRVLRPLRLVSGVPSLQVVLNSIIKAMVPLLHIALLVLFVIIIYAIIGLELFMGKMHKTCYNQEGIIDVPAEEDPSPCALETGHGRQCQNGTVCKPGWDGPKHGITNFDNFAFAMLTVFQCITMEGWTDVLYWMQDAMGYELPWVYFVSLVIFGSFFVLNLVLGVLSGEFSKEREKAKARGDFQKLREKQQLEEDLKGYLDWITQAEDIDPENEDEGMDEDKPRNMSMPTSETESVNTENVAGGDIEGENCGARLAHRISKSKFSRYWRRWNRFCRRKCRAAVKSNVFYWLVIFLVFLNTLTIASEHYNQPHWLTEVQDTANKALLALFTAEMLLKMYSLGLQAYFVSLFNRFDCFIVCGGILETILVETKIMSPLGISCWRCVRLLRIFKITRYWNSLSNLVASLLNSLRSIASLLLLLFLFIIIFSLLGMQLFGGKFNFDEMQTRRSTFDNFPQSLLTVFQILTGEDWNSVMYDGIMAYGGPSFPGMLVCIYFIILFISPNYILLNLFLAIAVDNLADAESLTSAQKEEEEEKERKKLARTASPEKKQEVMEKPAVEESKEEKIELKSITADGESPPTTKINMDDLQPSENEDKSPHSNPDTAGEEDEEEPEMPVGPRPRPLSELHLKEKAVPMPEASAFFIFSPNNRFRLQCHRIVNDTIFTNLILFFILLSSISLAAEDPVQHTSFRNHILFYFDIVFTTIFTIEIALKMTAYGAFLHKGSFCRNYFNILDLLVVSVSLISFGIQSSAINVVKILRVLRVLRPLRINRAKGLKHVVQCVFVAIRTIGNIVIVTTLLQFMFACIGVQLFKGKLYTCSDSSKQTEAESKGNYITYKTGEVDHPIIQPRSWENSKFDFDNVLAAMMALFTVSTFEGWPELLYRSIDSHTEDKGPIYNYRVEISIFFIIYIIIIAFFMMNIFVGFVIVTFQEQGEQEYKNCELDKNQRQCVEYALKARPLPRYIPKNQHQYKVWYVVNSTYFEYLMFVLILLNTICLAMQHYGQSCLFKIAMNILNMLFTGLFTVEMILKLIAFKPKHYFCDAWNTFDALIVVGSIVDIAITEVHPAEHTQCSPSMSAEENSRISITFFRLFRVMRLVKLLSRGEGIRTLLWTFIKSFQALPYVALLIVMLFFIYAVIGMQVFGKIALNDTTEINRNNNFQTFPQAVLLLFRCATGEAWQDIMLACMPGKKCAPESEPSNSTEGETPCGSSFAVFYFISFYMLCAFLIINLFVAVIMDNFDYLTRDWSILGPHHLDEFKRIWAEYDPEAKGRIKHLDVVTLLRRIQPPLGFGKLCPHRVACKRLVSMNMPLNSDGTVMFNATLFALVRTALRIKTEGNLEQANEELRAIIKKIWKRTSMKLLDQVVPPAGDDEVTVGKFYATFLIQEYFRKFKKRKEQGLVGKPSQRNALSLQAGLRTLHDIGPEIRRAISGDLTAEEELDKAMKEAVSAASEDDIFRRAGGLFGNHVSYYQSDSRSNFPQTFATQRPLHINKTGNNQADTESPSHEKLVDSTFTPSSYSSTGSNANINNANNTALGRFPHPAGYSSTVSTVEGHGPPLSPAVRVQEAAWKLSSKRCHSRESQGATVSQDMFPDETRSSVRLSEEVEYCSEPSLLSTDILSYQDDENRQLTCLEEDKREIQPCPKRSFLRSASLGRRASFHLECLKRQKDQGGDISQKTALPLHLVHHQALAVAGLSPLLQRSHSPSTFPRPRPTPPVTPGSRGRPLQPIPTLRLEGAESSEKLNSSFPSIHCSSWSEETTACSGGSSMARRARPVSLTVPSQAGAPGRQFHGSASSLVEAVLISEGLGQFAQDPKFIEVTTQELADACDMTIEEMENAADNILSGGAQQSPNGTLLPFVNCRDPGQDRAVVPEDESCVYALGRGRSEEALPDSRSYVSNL
alpha 1A (h), sequence (P35348 whole entry): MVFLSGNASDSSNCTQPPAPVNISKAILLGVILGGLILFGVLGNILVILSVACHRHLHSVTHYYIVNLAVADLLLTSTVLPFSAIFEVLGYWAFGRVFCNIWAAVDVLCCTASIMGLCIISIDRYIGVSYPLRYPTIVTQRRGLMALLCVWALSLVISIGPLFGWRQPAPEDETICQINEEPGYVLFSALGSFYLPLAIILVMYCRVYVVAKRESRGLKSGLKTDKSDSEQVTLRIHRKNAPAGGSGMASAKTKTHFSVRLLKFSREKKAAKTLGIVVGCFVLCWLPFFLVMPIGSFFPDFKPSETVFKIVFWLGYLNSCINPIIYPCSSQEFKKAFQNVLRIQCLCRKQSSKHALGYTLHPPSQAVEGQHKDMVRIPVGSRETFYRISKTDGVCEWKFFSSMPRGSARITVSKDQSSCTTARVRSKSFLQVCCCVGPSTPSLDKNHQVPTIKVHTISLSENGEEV
T6 sequence (P08253 110-660): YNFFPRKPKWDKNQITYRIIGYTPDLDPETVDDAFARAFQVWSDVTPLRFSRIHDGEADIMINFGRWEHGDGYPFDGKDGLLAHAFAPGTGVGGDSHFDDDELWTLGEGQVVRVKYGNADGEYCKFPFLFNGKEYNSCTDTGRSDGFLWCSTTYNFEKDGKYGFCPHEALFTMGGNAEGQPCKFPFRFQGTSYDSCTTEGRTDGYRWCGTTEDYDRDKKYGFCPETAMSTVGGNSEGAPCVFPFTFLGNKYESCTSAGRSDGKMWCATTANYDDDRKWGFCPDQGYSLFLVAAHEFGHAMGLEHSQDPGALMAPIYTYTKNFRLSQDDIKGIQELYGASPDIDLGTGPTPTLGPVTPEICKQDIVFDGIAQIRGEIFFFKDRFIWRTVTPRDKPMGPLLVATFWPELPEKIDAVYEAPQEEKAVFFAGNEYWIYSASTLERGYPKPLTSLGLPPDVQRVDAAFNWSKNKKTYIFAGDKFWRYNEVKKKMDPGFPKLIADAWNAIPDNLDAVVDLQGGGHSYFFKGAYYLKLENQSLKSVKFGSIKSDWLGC
T13 sequence (Q14694 whole entry): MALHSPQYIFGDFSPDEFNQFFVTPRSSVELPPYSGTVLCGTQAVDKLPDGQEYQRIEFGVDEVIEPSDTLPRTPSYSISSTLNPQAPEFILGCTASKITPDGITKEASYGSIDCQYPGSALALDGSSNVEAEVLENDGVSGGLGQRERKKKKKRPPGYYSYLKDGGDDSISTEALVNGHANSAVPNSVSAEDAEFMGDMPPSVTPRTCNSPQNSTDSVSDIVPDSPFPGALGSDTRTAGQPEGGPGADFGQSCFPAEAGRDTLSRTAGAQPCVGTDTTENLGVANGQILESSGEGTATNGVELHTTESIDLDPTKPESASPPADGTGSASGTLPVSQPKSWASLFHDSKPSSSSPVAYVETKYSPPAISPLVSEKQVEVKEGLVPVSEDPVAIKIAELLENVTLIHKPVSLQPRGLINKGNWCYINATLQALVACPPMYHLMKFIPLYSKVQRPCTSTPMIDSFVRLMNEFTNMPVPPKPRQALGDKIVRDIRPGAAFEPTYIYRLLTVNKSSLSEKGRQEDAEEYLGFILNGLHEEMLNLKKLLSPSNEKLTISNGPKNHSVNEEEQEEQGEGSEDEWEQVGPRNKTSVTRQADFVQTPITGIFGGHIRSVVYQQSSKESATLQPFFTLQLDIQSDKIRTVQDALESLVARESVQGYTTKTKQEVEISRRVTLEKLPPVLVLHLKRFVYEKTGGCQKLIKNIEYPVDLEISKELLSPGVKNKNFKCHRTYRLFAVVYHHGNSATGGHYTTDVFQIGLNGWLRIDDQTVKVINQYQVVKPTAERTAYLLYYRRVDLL
T18 sequence (P15374 whole entry): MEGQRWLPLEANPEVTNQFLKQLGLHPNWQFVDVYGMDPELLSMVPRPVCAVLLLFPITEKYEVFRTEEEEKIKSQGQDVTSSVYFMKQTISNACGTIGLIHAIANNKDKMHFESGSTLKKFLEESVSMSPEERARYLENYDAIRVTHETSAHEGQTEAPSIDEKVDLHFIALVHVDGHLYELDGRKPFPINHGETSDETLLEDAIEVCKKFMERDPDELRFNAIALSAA
T19 sequence (Q12884 whole entry): as the sequence (Q12884 whole entry) above

Molecule: COc1cccc(OC)c1OCCNCC1COc2ccccc2O1 (centres unmarked) [WB 4101]
- Ki [1]: 0.24 nM

Molecule: alpha-dendrotoxin
- Ki [2]: 0.097 nM

- IC50 [3]: < 10 nM
- Kd [4]: < 10 nM
- IC50 [5]: < 10 nM
- uptake in healthy tissues (biodistribution) [6]: very low uptake in healthy tissues
Molecule: CCCCNC(=O)N[C@H]1CSCc2cc(CSCCNC(=O)CN3CCN(CC(=O)O)CCN(CC(=O)O)CCN(CC(=O)O)CC3)cc(c2)CSC[C@@H](C(=O)O)NC(=O)[C@H](Cc2ccccc2)NC(=O)[C@H](CCC(N)=O)NC(=O)[C@H]([C@@H](C)O)NC(=O)[C@@H]2CCCN2C(=O)[C@@H]2CCCN2C1=O [3BP-3940, nBu-CAyl-[Cys(tMeBn(DOTA-AET))-Pro-Pro-Thr-Gln-Phe-Cys]-OH]
- pKD Category ([4]; Biacore assay): A (Category A stands for pKD values >8.0)

Molecule: Cystatin C
- Percentage inhibition (%) [7]: 74%

Molecule: N#Cc1ccc(NCCNCC(=O)N2N=CCC2C#N)nc1 (centres unmarked) [KR62436]
- Percentage inhibition (%) [8]: 83%
- Percentage inhibition (%) [9]: 96%

- IC50 [3]: < 10 nM
- Kd [4]: < 10 nM
- uptake in healthy tissues (biodistribution) [10]: very low uptake in healthy tissues
- IC50 [5]: < 10 nM
Molecule: CCCCNC(=O)N[C@H]1CSCc2cc(CSCCNC(=O)CN3CCN(CC(=O)O)CCN(CC(=O)O)CCN(CC(=O)O)CC3)cc(c2)CSC[C@@H](C(N)=O)NC(=O)[C@H](Cc2ccccc2)NC(=O)[C@H](CCC(N)=O)NC(=O)[C@H]([C@@H](C)O)NC(=O)[C@@H]2CCCN2C(=O)[C@@H]2CCCN2C1=O [3BP-4560, nBu-CAyl-[Cys(tMeBn(DOTA-AET))-Pro-Pro-Thr-Gln-Phe-Cys]-NH2]

Molecule: CCCCCC(=O)N[C@H]1CSCc2cc(CSCCNC(=O)CN3CCN(CC(=O)O)CCN(CC(=O)O)CCN(CC(=O)O)CC3)cc(c2)CSC[C@@H](C(=O)O)NC(=O)[C@H](Cc2ccccc2)NC(=O)[C@H](CCC(N)=O)NC(=O)[C@H]([C@@H](C)O)NC(=O)[C@@H]2CCCN2C(=O)[C@@H]2CCCN2C1=O [3BP-3554, Hex-[Cys(tMeBn(DOTA-AET))-Pro-Pro-Thr-Gln-Phe-Cys]-OH]
- inhibition at 10 µM [11]: 54%
- % intact compound remaining after incubation, Rat plasma [12]: 100% (24 h)
- % intact compound remaining after incubation, Human plasma [13]: 100% (24 h)

Molecule: CCCCCC(=O)N[C@H]1CSCc2cc(cc(CN3CCN(C(=O)CN4CCN(CC(=O)O)CCN(CC(=O)O)CCN(CC(=O)O)CC4)CC3)c2)CSC[C@@H](C(=O)N[C@@H](CC(=O)O)C(N)=O)NC(=O)[C@H](Cc2ccccc2)NC(=O)[C@H](CCC(N)=O)NC(=O)[C@H]([C@@H](C)O)NC(=O)[C@@H]2CCCN2C(=O)[C@@H]2CCCN2C1=O [3BP-3407, Hex-[Cys(tMeBn(DOTA-PP))-Pro-Pro-Thr-Gln-Phe-Cys]-Asp-NH2] (Hexanoyl-CPPTQFCD-NH2; linker 1-7 via X13)
- inhibition at 10 µM [11]: 42%
- % intact compound remaining after incubation, Rat plasma [12]: 100% (24 h)
- % intact compound remaining after incubation, Human plasma [13]: 100% (24 h)

Molecule: COc1ccc(S(=O)(=O)N(CC(=O)NO)CC(C)C)cc1 [NNGH]
- Percentage inhibition (%) [14]: 87%
- Percentage inhibition (%) [15]: 95%
- Percentage inhibition (%) [16]: 92%

Molecule: Ub-Aldehyde
- Percentage inhibition (%) [17]: 92%
- Percentage inhibition (%) [18]: 73%
- Percentage inhibition (%) [19]: 95%
- Percentage inhibition (%) [20]: 96%
- Percentage inhibition (%) [21]: 97%
- Percentage inhibition (%) [22]: 82%
- Percentage inhibition (%) [23]: 99%
- Percentage inhibition (%) [24]: 77%
- Percentage inhibition (%) [25]: 84%
- Percentage inhibition (%) [26]: 91%
- Percentage inhibition (%) [27]: 95%

Molecule: N#C[C@@H]1CC(F)(F)CN1C(=O)CNC(=O)c1ccnc2ccccc12 [SP-13786]
- Percentage inhibition (%) [28]: 100%

Molecule: COc1cc(CC(C)N)c(OC)cc1I (racemic) [(±)DOI]
- Ki [29]: 4.2 nM

Molecule: COC[C@@H]1CCCN1S(=O)(=O)c1ccc2c(c1)C(=O)C(=O)N2 [Caspase 3/7 Inhibitor I]
- Percentage inhibition (%) [30]: 89%
- Percentage inhibition (%) [31]: 92%

Molecule: O=C(O)[C@@H]1C[C@H](CP(=O)(O)O)CCN1 [CGS 19755]
- Ki [32]: 140 nM

Molecule: Denoprevir
- Percentage inhibition (%) [33]: 98%
- Percentage inhibition (%) [34]: 99%
- Percentage inhibition (%) [35]: 94%
- Percentage inhibition (%) [36]: 100%
- Percentage inhibition (%) [37]: 99%

Molecule: CCCCCC(=O)N[C@H]1CSCc2cc(CSCCNC(=O)CN3CCN(CC(=O)O)CCN(CC(=O)O)CCN(CC(=O)O)CC3)cc(c2)CSC[C@@H](C(=O)O)NC(=O)[C@H](Cc2ccccc2)NC(=O)[C@H](CCC(N)=O)NC(=O)[C@H]([C@@H](C)O)NC(=O)[C@@H]2CCCN2C(=O)[C@@H]2CCCN2C1=O [^177Lu-3BP-3554, metal not drawn]
- body weight loss [38]: No treatment-related body weight loss
- body weight loss (BWL) [39]: No treatment-related body weight loss

Molecule: Sibrotuzumab
- patients having stable disease [40]: 2 out of 17
